Source: patent US9206128B2 (Constellation Pharmaceuticals, Inc., priority 2011, dated 2015)

Tests used:
EZH2 = EZH2 (Homo sapiens, UniProt Q15910); experiment: EZH2 activity inhibition assay (rPRC2, 3H SAM, biotinylated oligonucleosomes, FlashPlate); type: biochemical; conditions: rPRC2, 2 nM EZH2, 0.2 μM 3H SAM, top concentration 80 μM
Procedure: (§1) EZH2 Assay: Assays were carried out by mixing rPRC2 together with biotinylated oligonucleosome substrates in the presence of the radio-labeled enzyme co-factor, S-adenosyl-L-methionine (^3H SAM) (Perkin Elmer) and monitoring the enzymatically mediated transfer of tritiated methyl groups from ^3H SAM to histone lysine residues. The amount of resulting tritiated methyl histone product was measured by first capturing the biotinylated oligonucleosomes in streptavidin (SAV) coated FlashPlates (Perkin Elmer), followed by a wash step to remove un-reacted ^3H SAM, and then counting on a TopCount NXT 384 well plate scintillation counter (Perkin Elmer).
A 12.5 μL volume of the HMT enzyme, H3K27me3 peptide and oligonucleosome substrate in assay buffer was added to each well of the assay plate using a Multidrop Combi (ThermoFisher). Compounds were pre-incubated with the enzyme for 20 min, followed by initiation of the methyltransferase reaction by addition of 12.5 μL of 3H SAM in assay buffer (final volume=25 μL). […] Stopped reactions were transferred to SAV coated Flashplates (Perkin Elmer), incubated for 120 min, washed with a plate washer, and then read on the TopCount NXT (1.0 min/well) to measure the amount of methyl histone product formed during the reaction.

Y641N EZH2 = Y641N EZH2 (Homo sapiens, UniProt Q15910, Y641N); experiment: Y641N EZH2 activity inhibition assay (as EZH2 assay, reconstituted H3K27Me2 oligonucleosomes as substrate); type: biochemical; conditions: Y641N EZH2 mutant enzyme
Sequence of Y641N EZH2 (Q15910 whole entry Y641N): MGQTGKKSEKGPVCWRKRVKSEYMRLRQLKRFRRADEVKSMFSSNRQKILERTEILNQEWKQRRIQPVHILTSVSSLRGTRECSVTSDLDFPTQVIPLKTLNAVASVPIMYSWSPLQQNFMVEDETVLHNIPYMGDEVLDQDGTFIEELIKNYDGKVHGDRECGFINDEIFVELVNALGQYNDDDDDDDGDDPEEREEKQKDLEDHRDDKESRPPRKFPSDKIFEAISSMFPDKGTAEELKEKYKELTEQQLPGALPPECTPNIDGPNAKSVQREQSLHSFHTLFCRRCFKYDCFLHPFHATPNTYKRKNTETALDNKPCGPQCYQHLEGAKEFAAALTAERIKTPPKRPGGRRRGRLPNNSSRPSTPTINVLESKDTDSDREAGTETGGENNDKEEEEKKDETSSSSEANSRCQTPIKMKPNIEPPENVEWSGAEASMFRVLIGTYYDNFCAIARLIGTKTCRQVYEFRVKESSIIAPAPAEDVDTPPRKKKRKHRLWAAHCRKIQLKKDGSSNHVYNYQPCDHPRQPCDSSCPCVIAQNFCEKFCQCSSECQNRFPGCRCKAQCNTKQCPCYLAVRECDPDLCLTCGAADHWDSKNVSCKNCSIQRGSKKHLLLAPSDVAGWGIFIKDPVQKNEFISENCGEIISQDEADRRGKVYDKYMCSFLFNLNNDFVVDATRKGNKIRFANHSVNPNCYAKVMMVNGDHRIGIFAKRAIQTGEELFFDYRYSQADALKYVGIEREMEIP
Sequence of Y641N EZH2 (O75530 whole entry partner): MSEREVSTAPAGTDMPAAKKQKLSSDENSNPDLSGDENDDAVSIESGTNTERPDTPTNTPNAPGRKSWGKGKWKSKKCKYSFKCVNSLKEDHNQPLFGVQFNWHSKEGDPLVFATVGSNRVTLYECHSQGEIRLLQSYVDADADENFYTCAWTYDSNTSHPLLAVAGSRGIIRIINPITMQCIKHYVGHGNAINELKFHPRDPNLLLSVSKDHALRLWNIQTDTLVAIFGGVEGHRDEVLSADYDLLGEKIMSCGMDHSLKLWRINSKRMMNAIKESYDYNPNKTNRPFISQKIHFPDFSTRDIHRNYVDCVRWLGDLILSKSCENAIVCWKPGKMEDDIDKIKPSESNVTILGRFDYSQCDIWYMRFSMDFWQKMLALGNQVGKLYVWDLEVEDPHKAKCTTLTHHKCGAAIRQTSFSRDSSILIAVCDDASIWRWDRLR
Sequence of Y641N EZH2 (Q15022 whole entry partner): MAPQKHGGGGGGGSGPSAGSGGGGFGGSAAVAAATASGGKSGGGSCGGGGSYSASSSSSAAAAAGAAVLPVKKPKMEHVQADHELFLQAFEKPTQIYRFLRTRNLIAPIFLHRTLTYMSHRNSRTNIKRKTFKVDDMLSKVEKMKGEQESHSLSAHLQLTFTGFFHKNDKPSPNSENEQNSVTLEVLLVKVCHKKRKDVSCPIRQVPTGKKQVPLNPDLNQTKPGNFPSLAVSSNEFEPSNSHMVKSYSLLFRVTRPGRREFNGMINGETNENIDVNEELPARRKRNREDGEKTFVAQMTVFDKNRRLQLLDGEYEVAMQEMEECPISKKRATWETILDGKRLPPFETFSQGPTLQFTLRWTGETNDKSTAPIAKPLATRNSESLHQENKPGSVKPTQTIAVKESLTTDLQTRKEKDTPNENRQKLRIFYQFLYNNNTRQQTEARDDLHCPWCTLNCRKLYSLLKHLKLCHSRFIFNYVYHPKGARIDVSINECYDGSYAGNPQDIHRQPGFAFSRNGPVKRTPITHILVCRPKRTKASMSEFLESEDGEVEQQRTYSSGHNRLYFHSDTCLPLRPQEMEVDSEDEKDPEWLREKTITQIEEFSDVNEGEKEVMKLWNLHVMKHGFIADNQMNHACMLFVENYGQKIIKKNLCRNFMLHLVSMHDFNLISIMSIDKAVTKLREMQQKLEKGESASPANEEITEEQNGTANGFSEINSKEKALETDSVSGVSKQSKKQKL
Procedure: as §1, with “Elmer). The final assay conditions for EZH2 were as follows: 50 mM Tris Buffer pH 8.5, 1 mM DTT, 69 μM Brij-35 detergent, 5.0 mM MgCl2, 0.1 mg/mL BSA, 0.2 μM ^3H SAM, 0.2 μM biotinylated oligonucleosomes, 3.6 μM H3K27me3 peptide and 2 nM EZH2.” for “Elmer).”
A 12.5 μL volume of the HMT enzyme, H3K27me3 peptide and oligonucleosome substrate in assay buffer was added to each well of the assay plate using a Multidrop Combi (ThermoFisher). Compounds were pre-incubated with the enzyme for 20 min, followed by initiation of the methyltransferase reaction by addition of 12.5 μL of 3H SAM in assay buffer (final volume=25 μL). The final concentrations of compounds ranged from a top default concentration of 80 μM down to 0.16 μM in ten 2-fold dilution steps. Reactions were carried out for 60 minutes and quenched with 20 μL per well of 1.96 mM SAH, 50 mM Tris PH 8.5, 200 mM EDTA. Stopped reactions were transferred to SAV coated Flashplates (Perkin Elmer), incubated for 120 min, washed with a plate washer, and then read on the TopCount NXT (1.0 min/well) to measure the amount of methyl histone product formed during the reaction.

Sequence of EZH2 (Q15910 whole entry): as the sequence (Q15910 whole entry Y641N) above, with N641Y counted along it
Sequence of EZH2 (O75530 whole entry partner): as the sequence (O75530 whole entry partner) above
Sequence of EZH2 (Q15022 whole entry partner): as the sequence (Q15022 whole entry partner) above

SMILES | IC50 (EZH2) [µM] | IC50 (Y641N EZH2) [µM]
Cc1cc(C)c(CNC(=O)c2ccc(C(C)Oc3ccccc3)nc2)c(=O)[nH]1 (stereo not shown) [Compound I-64, N-((2-hydroxy-4,6-dimethylpyridin-3-yl)methyl)-6-(1-phenoxyethyl)nicotinamide] | 1 to 10 | > 80
Cc1cc(C(F)(F)F)c(CNC(=O)c2ccc(Oc3ccccc3)cc2)c(=O)[nH]1 [Compound I-65, N-((2-hydroxy-6-methyl-4-(trifluoromethyl)pyridin-3-yl)methyl)-4-phenoxybenzamide] | 10 to 50 | > 80
Cc1cc(C)c(CNC(=O)c2ccc(C(C)Oc3ccccc3)cc2Cl)c(=O)[nH]1 (stereo not shown) [Compound I-66, 2-chloro-N-((2-hydroxy-4,6-dimethylpyridin-3-yl)methyl)-4-(1-phenoxyethyl)benzamide] | < 1 | < 1
Cc1cc(C)c(CNC(=O)c2ccc([C@H](C)Oc3cccc(-c4ccc(N)nc4)c3)cc2)c(=O)[nH]1 [Compound I-69] | < 1 | < 1
Cc1cc(C)c(CNC(=O)c2ccc(C(C)Oc3ncccn3)cc2)c(=O)[nH]1 (stereo not shown) [Compound I-76, N-((2-hydroxy-4,6-dimethylpyridin-3-yl)methyl)-4-(1-(pyrimidin-2-yloxy)ethyl)benzamide] | 10 to 50 | > 80
Cc1cc(C)c(CNC(=O)c2ccc(C(C)Oc3cccnc3)nc2)c(=O)[nH]1 (stereo not shown) [Compound I-78, N-((2-hydroxy-4,6-dimethylpyridin-3-yl)methyl)-6-(1-(pyridin-3-yloxy)ethyl)nicotinamide] | 1 to 10 | > 80
Cc1cc(C)c(CNC(=O)c2cnc(Oc3ccccc3)nc2)c(=O)[nH]1 [Compound I-79, N-((2-hydroxy-4,6-dimethylpyridin-3-yl)methyl)-2-phenoxypyrimidine-5-carboxamide] | 10 to 50 | > 80
Cc1cc(C)c(CNC(=O)c2ccc(CN3CCCCC3)cc2C)c(=O)[nH]1 [Compound I-80, N-((2-hydroxy-4,6-dimethylpyridin-3-yl)methyl)-2-methyl-4-(piperidin-1-ylmethyl)benzamide] | 1 to 10 | 10 to 50
Cc1cc(C)c(CNC(=O)c2ccc(C(C)N3CCCCC3)cc2)c(=O)[nH]1 (stereo not shown) [Compound I-81] | 1 to 10 | 10 to 50
Cc1cc(C)c(CNC(=O)c2ccc(C3CCOC3)cc2)c(=O)[nH]1 (stereo not shown) [Compound I-83, N-((2-hydroxy-4,6-dimethylpyridin-3-yl)methyl)-4-(tetrahydrofuran-3-yl)benzamide] | < 1 | 1 to 10
Cc1cc(C)c(CNC(=O)c2ccc(C3CCCO3)cc2)c(=O)[nH]1 (stereo not shown) [Compound I-84, N-((2-hydroxy-4,6-dimethylpyridin-3-yl)methyl)-4-(tetrahydrofuran-2-yl)benzamide] | 1 to 10 | 10 to 50
Cc1cc(C)c(CNC(=O)c2ccc(C(C)OC3CCCCC3)cc2)c(=O)[nH]1 (stereo not shown) [Compound I-85, 4-(1-(cyclohexyloxy)ethyl)-N-((2-hydroxy-4,6-dimethylpyridin-3-yl)methyl)benzamide] | < 1 | 1 to 10
Cc1cc(C)c(CNC(=O)c2ccc(C3CCCC3)cc2)c(=O)[nH]1 [Compound I-86, 4-cyclopentyl-N-((2-hydroxy-4,6-dimethylpyridin-3-yl)methyl)benzamide] | < 1 | 1 to 10
Cc1cc(C)c(CNC(=O)c2ccc(C(C)N3CCCCC3)cc2C)c(=O)[nH]1 (stereo not shown) [Compound I-87, N-((2-hydroxy-4,6-dimethylpyridin-3-yl)methyl)-2-methyl-4-(1-(piperidin-1-yl)ethyl)benzamide] | 1 to 10 | 1 to 10
Cc1cc(C)c(CNC(=O)c2ccc(C(C)N3CCCCC3=O)cc2)c(=O)[nH]1 (stereo not shown) [Compound I-88, N-((2-hydroxy-4,6-dimethylpyridin-3-yl)methyl)-4-(1-(2-oxopiperidin-1-yl)ethyl)benzamide] | 1 to 10 | > 80
Cc1cc(C)c(CNC(=O)c2ccc(CN3CCN(CCO)CC3)cc2)c(=O)[nH]1 [Compound I-89, N-((4,6-dimethyl-2-oxo-1,2-dihydropyridin-3-yl)methyl)-4-((4-(2-hydroxyethyl)piperazin-1-yl)methyl)benzamide] | 1 to 10 | > 80
Cc1cc(C)c(CNC(=O)c2ccc(C(C)COc3ccccc3)cc2)c(O)n1 (stereo not shown) [Compound I-116, N-((2-hydroxy-4,6-dimethylpyridin-3-yl)methyl)-4-(1-phenoxypropan-2-yl)benzamide] | < 1 | > 80
Cc1cc(C)c(CNC(=O)c2ccc(C(C)Oc3ccncn3)cc2)c(=O)[nH]1 (stereo not shown) [Compound I-155, N-((2-hydroxy-4,6-dimethylpyridin-3-yl)methyl)-4-(1-(pyrimidin-4-yloxy)ethyl)benzamide] | < 1 | 1 to 10

SMILES | IC50 (EZH2) [µM] | IC50 (Y641N EZH2) [µM]
Cc1c[nH]c(=O)c(CNC(=O)c2ccc(C(C)Oc3ccccc3)cc2)c1 (stereo not shown) [Compound I-156] | > 80 | > 80
Cc1cc(CNC(=O)c2ccc(C(C)Oc3ccccc3)cc2)c(=O)[nH]c1C (stereo not shown) [Compound I-157] | > 80 | > 80
Cc1cc(C)c(CNC(=O)c2ccc(Oc3ccccc3)nn2)c(=O)[nH]1 [Compound I-158] | > 80 | > 80
Cc1cc(C)c(CNC(=O)c2ncc(Oc3ccccc3)cn2)c(=O)[nH]1 [Compound I-159] | > 80 | > 80
Cc1cc(C)c(CNC(=O)c2ccc([C@@H](C)Oc3ccccc3C#N)cc2)c(=O)[nH]1 [Compound I-162] | 1 to 10 | > 80
Cc1cc(C)c(CNC(=O)c2ccc([C@H](C)Oc3ccccc3C#N)cc2)c(=O)[nH]1 [Compound I-163] | < 1 | < 1
Cc1cc(C)c(CNC(=O)c2ccc([C@@H](C)Oc3cccc(C#N)c3)cc2)c(=O)[nH]1 [Compound I-168] | 1 to 10 | > 80
Cc1cc(C)c(CNC(=O)c2ccc([C@H](C)Oc3cccc(C#N)c3)cc2)c(=O)[nH]1 [Compound I-169] | < 1 | < 1
O=C(NCc1ccc(-c2ccccc2)[nH]c1=O)c1ccc(Oc2ccccc2)cc1 [Compound I-170] | > 80 | > 80
O=C(NCc1cc2c([nH]c1=O)CCC2)c1ccc(Oc2ccccc2)cc1 [Compound I-178, N-((2-oxo-2,5,6,7-tetrahydro-1H-cyclopenta[b]pyridin-3-yl)methyl)-4-phenoxybenzamide] | 10 to 50 | 10 to 50
O=C(NCc1cc2c([nH]c1=O)CCCC2)c1ccc(Oc2ccccc2)cc1 [Compound I-179] | > 50 | > 80
Cc1cc(C)c(CNC(=O)c2ccc(C(C)Oc3ccccc3)nn2)c(=O)[nH]1 (stereo not shown) [Compound I-182, N-((2-hydroxy-4,6-dimethylpyridin-3-yl)methyl)-6-(1-phenoxyethyl)pyridazine-3-carboxamide] | 1 to 10 | > 80
Cc1cc(C)c(CNC(=O)c2ccc(C(CO)Oc3ccccc3)cc2)c(=O)[nH]1 (stereo not shown) [Compound I-183, 4-(2-hydroxy-1-phenoxyethyl)-N-((2-hydroxy-4,6-dimethylpyridin-3-yl)methyl)benzamide] | 1 to 10 | > 80
Cc1cc(C)c(CNC(=O)c2ccc(C(C)OC3CCOC3)cc2)c(=O)[nH]1 (stereo not shown) [Compound I-184, N-((2-hydroxy-4,6-dimethylpyridin-3-yl)methyl)-4-(1-(tetrahydrofuran-3-yloxy)ethyl)benzamide] | < 1 | 1 to 10
Cc1cc(C)c(CNC(=O)c2ccc(C(C)OC3CCOCC3)cc2)c(=O)[nH]1 (stereo not shown) [Compound I-192] | < 1 | 1 to 10
COCC(Oc1ccccc1)c1ccc(C(=O)NCc2c(C)cc(C)[nH]c2=O)cc1 (stereo not shown) [Compound I-193] | > 80 | > 80
CNc1cc(C)[nH]c(=O)c1CNC(=O)c1ccc(Oc2ccccc2)cc1 [Compound I-194, N-((2-hydroxy-6-methyl-4-(methylamino)pyridin-3-yl)methyl)-4-phenoxybenzamide] | < 1 | > 80
